# Reference: US20220062240A1, “METHODS OF TREATING CANCER USING A CLK INHIBITOR” (BioSplice Therapeutics, Inc., priority 2018, published 2022)
# Where two headings read alike, the source gives them in different places.
# What was measured:
# CLK2 = target: T1, CLK2 (Homo sapiens, UniProt P49760); assay: CLK2 kinase activity assay (Z-lyte, Ser/Thr 6 peptide); assay type: biochemical
# T1 construct: purchased Thermo Fisher (Life Technologies), Z'-LYTE Kinase Assay Kits
# Procedure: All reactions were performed in duplicate.
# BT-549 = assay: CellTiter-Glo Viability Assay, breast cancer; assay type: cell-based; conditions: Homo sapiens, BT-549, 96 h
# CAMA1 = assay: CellTiter-Glo Viability Assay, breast cancer; assay type: cell-based; conditions: Homo sapiens, CAMA-1, 96 h
# DU4475 = assay: CellTiter-Glo Viability Assay, breast cancer; assay type: cell-based; conditions: Homo sapiens, DU-4475, 96 h
# HCC1599 = assay: CellTiter-Glo Viability Assay, breast cancer; assay type: cell-based; conditions: Homo sapiens, HCC1599, 96 h
# MCF7 = assay: CellTiter-Glo Viability Assay, breast cancer; assay type: cell-based; conditions: Homo sapiens, MCF7, 96 h
# MDA-MB-231-Luc = assay: CellTiter-Glo Viability Assay, breast cancer; assay type: cell-based; conditions: Homo sapiens, 96 h
# T47D = assay: CellTiter-Glo Viability Assay, breast cancer; assay type: cell-based; conditions: Homo sapiens, 96 h
# ZR-75-1 = assay: CellTiter-Glo Viability Assay, breast cancer; assay type: cell-based; conditions: Homo sapiens, ZR-75-1, 96 h
# all 50 cell lines = assay: CellTiter-Glo Viability Assay, average across all cell lines; assay type: cell-based; conditions: Homo sapiens, read-out: average EC50 for inhibition of cancer cell proliferation
# How it was run: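 4-day proliferation, 37° C/5% CO2; 300-3,000 cells/well; compound in duplicate vs DMSO controls. Panel: breast, colorectal, heme/lymphoid, liver, lung, ovarian, pancreatic, prostate lines. Read-out: CellTiter-Glo ATP luminescence, EC50 from dose-response.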
# [1] = system: colorectal cancer (6 cell lines); assay: CellTiter-Glo Viability Assay, colorectal cancer; assay type: cell-based; conditions: Homo sapiens
# [2] = system: haematopoietic & lymphoid tumors (13 cell lines); assay: CellTiter-Glo Viability Assay, haematopoietic & lymphoid tumors; assay type: cell-based; conditions: Homo sapiens
# [3] = system: liver cancer (3 cell lines); assay: CellTiter-Glo Viability Assay, liver cancer; assay type: cell-based; conditions: Homo sapiens
# [4] = system: lung cancer (4 cell lines); assay: CellTiter-Glo Viability Assay, lung cancer; assay type: cell-based; conditions: Homo sapiens
# [5] = system: ovarian cancer (4 cell lines); assay: CellTiter-Glo Viability Assay, ovarian cancer; assay type: cell-based; conditions: Homo sapiens
# [6] = system: pancreatic cancer (8 cell lines); assay: CellTiter-Glo Viability Assay, pancreatic cancer; assay type: cell-based; conditions: Homo sapiens
# [7] = system: prostate cancer (5 cell lines); assay: CellTiter-Glo Viability Assay, prostate cancer; assay type: cell-based; conditions: Homo sapiens
# CLK3 = CLK3 (Homo sapiens, UniProt P49761); assay: CLK3 kinase activity assay (Z-lyte, Ser/Thr 18 peptide)
# Sequence of CLK3 (P49761 whole entry): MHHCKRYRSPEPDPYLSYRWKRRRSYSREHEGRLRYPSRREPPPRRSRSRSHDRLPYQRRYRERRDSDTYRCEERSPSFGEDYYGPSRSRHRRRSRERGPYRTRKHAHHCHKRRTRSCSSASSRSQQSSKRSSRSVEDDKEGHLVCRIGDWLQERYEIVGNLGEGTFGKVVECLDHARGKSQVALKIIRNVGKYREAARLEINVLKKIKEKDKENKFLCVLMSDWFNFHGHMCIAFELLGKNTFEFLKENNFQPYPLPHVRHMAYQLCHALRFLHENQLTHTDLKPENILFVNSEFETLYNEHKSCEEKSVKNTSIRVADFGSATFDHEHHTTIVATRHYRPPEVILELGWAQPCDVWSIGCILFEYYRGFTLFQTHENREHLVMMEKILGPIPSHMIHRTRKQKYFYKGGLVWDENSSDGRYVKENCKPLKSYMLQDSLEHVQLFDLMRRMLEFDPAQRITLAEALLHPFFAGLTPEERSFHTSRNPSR
# T1 sequence (P49760 whole entry): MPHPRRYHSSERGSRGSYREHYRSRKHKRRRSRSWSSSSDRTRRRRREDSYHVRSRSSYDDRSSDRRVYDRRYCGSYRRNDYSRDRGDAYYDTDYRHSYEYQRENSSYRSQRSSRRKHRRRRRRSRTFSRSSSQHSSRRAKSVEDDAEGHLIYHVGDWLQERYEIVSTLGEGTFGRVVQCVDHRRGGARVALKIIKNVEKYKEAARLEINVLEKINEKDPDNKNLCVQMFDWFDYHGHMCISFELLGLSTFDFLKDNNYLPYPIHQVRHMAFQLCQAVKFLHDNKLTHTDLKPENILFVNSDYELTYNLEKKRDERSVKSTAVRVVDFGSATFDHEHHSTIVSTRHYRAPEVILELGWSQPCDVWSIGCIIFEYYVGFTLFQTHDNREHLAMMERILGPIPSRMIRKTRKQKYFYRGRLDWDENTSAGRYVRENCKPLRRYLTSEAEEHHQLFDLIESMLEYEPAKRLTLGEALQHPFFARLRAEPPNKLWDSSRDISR
smiles,measurement,setting,value
CN1CCC(N(C)c2cc(C(=O)Nc3cc4cc(-c5cnn(C)c5)ccc4cn3)ccn2)CC1 [Compound 72],EC50,CLK2,1.3 nM
same,EC50,BT-549,186 nM
same,EC50,CAMA1,294 nM
same,EC50,DU4475,121 nM
same,EC50,HCC1599,147 nM
same,EC50,MCF7,670 nM
same,EC50,MDA-MB-231-Luc,230 nM
same,EC50,T47D,506 nM
same,EC50,ZR-75-1,284 nM
same,EC50,all 50 cell lines,206 nM
same,EC50,"[1]; DLD-1, read-out: Colorectal cancer, EC50 (μM) DLD-1",0.157 µM
same,EC50,"[1]; HCT-116, read-out: Colorectal cancer, EC50 (μM) HCT116",0.103 µM
same,EC50,"[1]; HT-29, read-out: Colorectal cancer, EC50 (μM) HT29",0.257 µM
same,EC50,"[1]; SW48, read-out: Colorectal cancer, EC50 (μM) SW48",0.057 µM
same,EC50,"[1]; SW480, read-out: Colorectal cancer, EC50 (μM) SW480",0.129 µM
same,EC50,"[1]; SW-620, read-out: Colorectal cancer, EC50 (μM) SW620",0.072 µM
same,EC50,"[2]; DND41, read-out: Haematopoietic & Lymphoid tumors, EC50 (μM) DND-41",0.167 µM
same,EC50,"[2]; HL-60, read-out: Haematopoietic & Lymphoid tumors, EC50 (μM) HL-60",0.453 µM
same,EC50,"[2]; JM1, read-out: Haematopoietic & Lymphoid tumors, EC50 (μM) JM1",0.047 µM
same,EC50,"[2]; JeKo-1, read-out: Haematopoietic & Lymphoid tumors, EC50 (μM) JeKo-1",0.054 µM
same,EC50,"[2]; Jurkat, read-out: Haematopoietic & Lymphoid tumors, EC50 (μM) JURKAT, Clone E6-1",0.337 µM
same,EC50,"[2]; Kasumi 1, read-out: Haematopoietic & Lymphoid tumors, EC50 (μM) KASUMI-1",0.13 µM
same,EC50,"[2]; MOLT-4, read-out: Haematopoietic & Lymphoid tumors, EC50 (μM) MOLT-4",0.189 µM
same,EC50,"[2]; MV4-11, read-out: Haematopoietic & Lymphoid tumors, EC50 (μM) MV-4-11",0.049 µM
same,EC50,"[2]; Rec1, read-out: Haematopoietic & Lymphoid tumors, EC50 (μM) REC-1",0.049 µM
same,EC50,"[2]; SU-DHL-4, read-out: Haematopoietic & Lymphoid tumors, EC50 (μM) SUDHL4",0.229 µM
same,EC50,"[2]; TF-1, read-out: Haematopoietic & Lymphoid tumors, EC50 (μM) TF-1",0.314 µM
same,EC50,"[2]; Toledo, read-out: Haematopoietic & Lymphoid tumors, EC50 (μM) TOLEDO",0.057 µM
same,EC50,"[2]; read-out: Haematopoietic & Lymphoid tumors, EC50 (μM) Loucy",0.139 µM
same,EC50,"[3]; HepG2, read-out: Liver cancer, EC50 HEPG2",136 nM
same,EC50,"[3]; PLC-PRF-5, read-out: Liver cancer, EC50 PLC/PRF/5",386 nM
same,EC50,"[3]; SNU-398, read-out: Liver cancer, EC50 SNU398",51 nM
same,EC50,"[4]; A-427, read-out: Lung cancer, EC50 (μM) A427",0.136 µM
same,EC50,"[4]; HCC78, read-out: Lung cancer, EC50 (μM) HCC-78",0.211 µM
same,EC50,"[4]; NCI-H460, read-out: Lung cancer, EC50 (μM) NCI-H460",0.207 µM
same,EC50,"[4]; NCI-H522, read-out: Lung cancer, EC50 (μM) NCI-H522",0.119 µM
same,EC50,"[5]; OV-90, read-out: Ovarian cancer, EC50 (μM) OV-90",0.317 µM
same,EC50,"[5]; OVCAR-3, read-out: Ovarian cancer, EC50 (μM) OVCAR-3",0.095 µM
same,EC50,"[5]; PA-1, read-out: Ovarian cancer, EC50 (μM) PA1",0.154 µM
same,EC50,"[5]; TOV112D, read-out: Ovarian cancer, EC50 (μM) TOV-112D",0.106 µM
same,EC50,"[6]; BXPC-3, read-out: Pancreatic cancer, EC50 BxPC3",310 nM
same,EC50,"[6]; CAPAN-1, read-out: Pancreatic cancer, EC50 Capan1",215 nM
same,EC50,"[6]; Capan-2, read-out: Pancreatic cancer, EC50 Capan2",409 nM
same,EC50,"[6]; MIA PaCa-2, read-out: Pancreatic cancer, EC50 MIA PaCa-2",88 nM
same,EC50,"[6]; PANC-1, read-out: Pancreatic cancer, EC50 PANC-1",276 nM
same,EC50,"[6]; Panc 05.04, read-out: Pancreatic cancer, EC50 PANC 05.04",226 nM
same,EC50,"[6]; read-out: Pancreatic cancer, EC50 UPAFII",125 nM
same,EC50,"[7]; 22Rv1, read-out: Prostate cancer EC50 22Rv1",142 nM
same,EC50,"[7]; DU-145, read-out: Prostate cancer EC50 Du-145",232 nM
same,EC50,"[7]; LNCaP-Clone-FGC, read-out: Prostate cancer EC50 LNCap clone FGC",257 nM
same,EC50,"[7]; PC-3, read-out: Prostate cancer EC50 PC3",174 nM
same,EC50,"[7]; VCaP, read-out: Prostate cancer EC50 VCaP (Sigma)",509 nM
same,EC50,CLK3,19.9 nM
